Assay results taken from patent US8394442B2, “Process for the preparation of a flavoring concentrate, and a flavoring concentrate” (SYMRISE AG, priority 2007, dated 2013).
Where two headings read alike, the source gives them in different places.

How the values were obtained:
[1] = log Pow* calculated by Formula 2 from log Pow and the polarity parameter P′(x) of the ethanol/water mixture
[2] = log Pow: distribution coefficient between 1-octanol and water; conditions: 1-octanol/water
Description: Log Pow*=log Pow*−x*P′(x)/log Pow Formula 2: • where log Pow is the decimal logarithm of the distribution coefficient of a substance between 1-octanol and water, • x is the resulting solvent proportion based on the total volume proportion, normalized as 1.0, and • P′(x) is the polarity parameter for the corresponding solvent for the solvent proportion x.

[3] = solvent ethanol, proportion 10%
[4] = solvent ethanol, proportion 30%
[5] = solvent ethanol, proportion 40%
[6] = solvent ethanol, proportion 50%
[7] = solvent ethanol, proportion 60%
[8] = solvent ethanol, proportion 70%
[9] = solvent ethanol, proportion 80%
[10] = solvent ethanol, proportion 90%
[11] = solvent ethanol, proportion 100%

CC(=O)/C=C/C1C(C)=CCCC1(C)C (stereo not drawn) [alpha-ionone]
log Pow* (P′ 2%) ([1]; solvent ethanol, proportion 2%): 3.81 | log Pow* (P′ 4%) ([1]; solvent ethanol, proportion 4%): 3.76 | log Pow* (P′ 6%) ([1]; solvent ethanol, proportion 6%): 3.71 | log Pow* (P′ 8%) ([1]; solvent ethanol, proportion 8%): 3.67 | log Pow* (P′ 10%) [1, 3]: 3.63 | log Pow* (P′ 30%) [1, 4]: 3.30 | log Pow* (P′ 40%) [1, 5]: 3.18 | log Pow* (P′ 50%) [1, 6]: 3.08 | log Pow* (P′ 60%) [1, 7]: 2.99 | log Pow* (P′ 70%) [1, 8]: 2.92 | log Pow* (P′ 80%) [1, 9]: 2.85 | log Pow* (P′ 90%) [1, 10]: 2.80 | log Pow* (P′ 100%) [1, 11]: 2.75 | log Pow [2]: 3.86

CCCCCCC1CCC(=O)O1 (centres unmarked) [gamma-decalactone]
log Pow* (P′ 2%) ([1]; solvent ethanol, proportion 2%): 2.30 | log Pow* (P′ 4%) ([1]; solvent ethanol, proportion 4%): 2.22 | log Pow* (P′ 6%) ([1]; solvent ethanol, proportion 6%): 2.14 | log Pow* (P′ 8%) ([1]; solvent ethanol, proportion 8%): 2.07 | log Pow* (P′ 10%) [1, 3]: 2.00 | log Pow* (P′ 30%) [1, 4]: 1.47 | log Pow* (P′ 40%) [1, 5]: 1.27 | log Pow* (P′ 50%) [1, 6]: 1.11 | log Pow* (P′ 60%) [1, 7]: 0.97 | log Pow* (P′ 70%) [1, 8]: 0.85 | log Pow* (P′ 80%) [1, 9]: 0.75 | log Pow* (P′ 90%) [1, 10]: 0.65 | log Pow* (P′ 100%) [1, 11]: 0.57 | log Pow [2]: 2.38

C=C(C)[C@@H]1CCC2=CC(=O)C[C@@H](C)[C@]2(C)C1 [Nootkatone]
log Pow* (P′ 2%) ([1]; solvent ethanol, proportion 2%): 4.05 | log Pow* (P′ 4%) ([1]; solvent ethanol, proportion 4%): 4.01 | log Pow* (P′ 6%) ([1]; solvent ethanol, proportion 6%): 3.96 | log Pow* (P′ 8%) ([1]; solvent ethanol, proportion 8%): 3.92 | log Pow* (P′ 10%) [1, 3]: 3.88 | log Pow* (P′ 30%) [1, 4]: 3.57 | log Pow* (P′ 40%) [1, 5]: 3.46 | log Pow* (P′ 50%) [1, 6]: 3.36 | log Pow* (P′ 60%) [1, 7]: 3.28 | log Pow* (P′ 70%) [1, 8]: 3.21 | log Pow* (P′ 80%) [1, 9]: 3.15 | log Pow* (P′ 90%) [1, 10]: 3.10 | log Pow* (P′ 100%) [1, 11]: 3.05 | log Pow [2]: 4.10

CCCC(=O)OCC [Ethylbutyrate]
log Pow* (P′ 2%) [1]: 1.66 | log Pow* (P′ 4%) [1]: 1.55 | log Pow* (P′ 6%) [1]: 1.45 | log Pow* (P′ 8%) [1]: 1.35 | log Pow* (P′ 10%) [1]: 1.26 | log Pow* (P′ 30%) [1]: 0.55 | log Pow* (P′ 40%) [1]: 0.28 | log Pow* (P′ 50%) [1]: 0.06 | log Pow* (P′ 60%) [1]: −0.13 | log Pow* (P′ 70%) [1]: −0.29 | log Pow* (P′ 80%) [1]: −0.43 | log Pow* (P′ 90%) [1]: −0.55 | log Pow* (P′ 100%) [1]: −0.66 | log Pow [2]: 1.77

CCCSSCCC [Dipropyldisulfide]
log Pow* (P′ 2%) [1]: 3.85 | log Pow* (P′ 4%) [1]: 3.80 | log Pow* (P′ 6%) [1]: 3.76 | log Pow* (P′ 8%) [1]: 3.71 | log Pow* (P′ 10%) [1]: 3.67 | log Pow* (P′ 30%) [1]: 3.34 | log Pow* (P′ 40%) [1]: 3.22 | log Pow* (P′ 50%) [1]: 3.12 | log Pow* (P′ 60%) [1]: 3.04 | log Pow* (P′ 70%) [1]: 2.97 | log Pow* (P′ 80%) [1]: 2.90 | log Pow* (P′ 90%) [1]: 2.85 | log Pow* (P′ 100%) [1]: 2.80 | log Pow [2]: 3.90

CC(=O)/C=C/C1=C(C)CCCC1(C)C [beta-ionone]
log Pow* (P′ 2%) ([1]; solvent ethanol, proportion 2%): 3.80 | log Pow* (P′ 4%) ([1]; solvent ethanol, proportion 4%): 3.75 | log Pow* (P′ 6%) ([1]; solvent ethanol, proportion 6%): 3.70 | log Pow* (P′ 8%) ([1]; solvent ethanol, proportion 8%): 3.66 | log Pow* (P′ 10%) [1, 3]: 3.62 | log Pow* (P′ 30%) [1, 4]: 3.29 | log Pow* (P′ 40%) [1, 5]: 3.17 | log Pow* (P′ 50%) [1, 6]: 3.06 | log Pow* (P′ 60%) [1, 7]: 2.98 | log Pow* (P′ 70%) [1, 8]: 2.90 | log Pow* (P′ 80%) [1, 9]: 2.84 | log Pow* (P′ 90%) [1, 10]: 2.78 | log Pow* (P′ 100%) [1, 11]: 2.73 | log Pow [2]: 3.85

CC/C=C\CC1CCCC(=O)O1 (centres unmarked) [Jasmine lactone]
log Pow* (P′ 2%) ([1]; solvent ethanol, proportion 2%): 2.39 | log Pow* (P′ 4%) ([1]; solvent ethanol, proportion 4%): 2.31 | log Pow* (P′ 6%) ([1]; solvent ethanol, proportion 6%): 2.24 | log Pow* (P′ 8%) ([1]; solvent ethanol, proportion 8%): 2.17 | log Pow* (P′ 10%) [1, 3]: 2.11 | log Pow* (P′ 30%) [1, 4]: 1.59 | log Pow* (P′ 40%) [1, 5]: 1.40 | log Pow* (P′ 50%) [1, 6]: 1.25 | log Pow* (P′ 60%) [1, 7]: 1.11 | log Pow* (P′ 70%) [1, 8]: 1.00 | log Pow* (P′ 80%) [1, 9]: 0.90 | log Pow* (P′ 90%) [1, 10]: 0.81 | log Pow* (P′ 100%) [1, 11]: 0.73 | log Pow [2]: 2.47
